We go through eleven compounds from patent US20250388575A1, “HETEROBIFUNCTIONAL COMPOUNDS AND METHODS OF TREATING DISEASE” (Halda Therapeutics OpCo, Inc., priority 2022, published 2025).

Like-named read-outs stand apart in the source and are kept apart here.

For orientation: GI50 means the concentration at which growth is held to half of that of the control.

Assay [1] has as its system T-Rex 293 cell line SC3 cells having increased expression of androgen receptor protein. The assay can be described thus: Cellular growth inhibition, T-Rex 293 SC3 cells with increased androgen receptor expression (doxycycline), CellTiter-Glo. Type of assay: cell-based. The settings on record: T-Rex 293 SC3 cells with increased androgen receptor expression (exposed to 10 ng/mL doxycycline), 72 hours, CellTiter-Glo; read-out: GI50. The method, boiled down:
(§1)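 SC3, a T-Rex 293 clone with doxycycline-inducible wild-type androgen receptor, was seeded in phenol red-free DMEM with 10% charcoal-dextran FBS, with or without 10 ng/mL doxycycline. Compound added at 24 h (0.5% DMSO) for 72 h at 37° C. CellTiter-Glo 2.0 luminescence; GI50 from four-parameter fit.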
In general terms: Cellular ATP, detected with luciferase, serves as a proxy for viable cell number.

A further assay deals with T47D cells. In words: Cellular growth inhibition assay for T47D cells, CellTiter-Glo. Type of assay: cell-based, human. Conditions: 72 hours treatment, CellTiter-Glo 2.0. The method, boiled down:
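Growth inhibition as GI50, fitted with four parameters to CellTiter-Glo luminescence after 72 h of compound exposure (0.5% DMSO). Cells were T47D, grown in insulin-supplemented (0.2 units/mL) DMEM with 10% FBS and treated one day post-seeding.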

The next assay relates to VCaP cells. In words: Cellular growth inhibition assay for VCaP cells, CellTiter-Glo. It counts as cell-based, human. The settings on record: VCaP cells, 72 hours, CellTiter-Glo, read-out: GI50. The method, boiled down:
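GI50 values come from four-parameter curve fits of luminescence data normalized to a zero baseline. Compound, in medium with 0.5% DMSO, was added one day after plating and left for 72 h before CellTiter-Glo 2.0 addition.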

Assay [2] deals with T-Rex 293 cell line SC3 cells lacking increased expression of androgen receptor protein. The assay can be described thus: Cellular growth inhibition, T-Rex 293 SC3 cells lacking increased androgen receptor expression (no doxycycline), CellTiter-Glo. It counts as cell-based. Conditions: T-Rex 293 SC3 cells lacking increased androgen receptor expression (not exposed to doxycycline), 72 hours, CellTiter-Glo; read-out: GI50. The method, boiled down: as §1

Turning to `CCS(=O)(=O)c1ccc(Oc2ccc(CCCCC3CN(c4ccc(C(=O)N[C@H]5CC[C@H](Oc6ccc(C#N)c(Cl)c6)CC5)nn4)C3)cc2)c(-c2cn(C)c(=O)c3[nH]ccc23)c1` [I-73], the GI50 (in assay [1]; in the assay with T47D cells; in the assay with VCaP cells; in assay [2]) was less than 500 nM throughout.
With `Cn1cc(-c2cc(C(C)(C)O)ccc2Oc2c(F)cc(CCC3CCN(c4ccc(C(=O)N[C@H]5CC[C@H](Oc6ccc(C#N)c(Cl)c6)CC5)nn4)CC3)cc2F)c2cc[nH]c2c1=O` [I-115], the GI50 in assay [1] was less than 500 nM; in the assay with T47D cells, less than 500 nM; in the assay on VCaP cells, less than 500 nM; in assay [2] it was greater than 3000 nM.
`Cn1cc(-c2cc(C(C)(C)O)ccc2Oc2ccc(N3CC(CC4CCN(c5ccc(C(=O)N[C@H]6CC[C@H](Oc7ccc(C#N)c(Cl)c7)CC6)nn5)CC4)C3)cc2)c2cc[nH]c2c1=O` [I-147]: the 50% growth inhibitory concentration (GI50) is less than 500 nM in assay [1], less than 500 nM in the assay on T47D cells (Homo sapiens), less than 500 nM with VCaP cells (Homo sapiens) and greater than 3000 nM in assay [2].
Regarding `CCS(=O)(=O)c1ccc(Oc2ccc(CCC3CN(c4ccc(C(=O)N[C@H]5CC[C@H](Oc6ccc(C#N)c(Cl)c6)CC5)nn4)C3)cc2)c(-c2cn(C)c(=O)c3[nH]ccc23)c1` [I-72], the GI50 (in assay [1]; in the assay on T47D cells; with VCaP cells; in assay [2]) was less than 500 nM throughout.
Regarding `CCS(=O)(=O)Nc1ccc(Oc2cccc(COC3CCN(c4ccc(C(=O)N[C@H]5CC[C@H](Oc6ccc(C#N)c(Cl)c6)CC5)nn4)CC3)c2F)c(-c2cn(C)c(=O)c3[nH]ccc23)c1` [I-26], the concentration for 50% growth inhibition (GI50) in assay [1] was less than 500 nM; in the assay with T47D cells (Homo sapiens), less than 500 nM; in the assay with VCaP cells (Homo sapiens), less than 500 nM; in assay [2], greater than 3000 nM.
`Cn1cc(-c2cc(C(C)(C)O)ccc2Oc2ccc(N3CC(OC4CCN(c5ccc(C(=O)N[C@H]6CC[C@H](Oc7ccc(C#N)c(Cl)c7)CC6)nn5)CC4)C3)cc2)c2cc[nH]c2c1=O` [I-146]: the GI50 (in assay [1]; with T47D cells (Homo sapiens); in the assay with VCaP cells (Homo sapiens); in assay [2]) was less than 500 nM each time.
As to `Cn1cc(-c2cc(C(C)(C)O)ccc2Oc2ccc(CCOC3CCN(c4ccc(C(=O)N[C@H]5CC[C@H](Oc6ccc(C#N)c(Cl)c6)CC5)nn4)CC3)c(F)c2)c2cc[nH]c2c1=O` [I-132], the GI50 in assay [1] is less than 500 nM; in the assay with T47D cells (Homo sapiens) it was less than 500 nM; in the assay with VCaP cells (Homo sapiens), less than 500 nM; in assay [2], greater than 3000 nM.
Consider `Cn1cc(-c2cc(C(C)(C)O)ccc2Oc2ccc(CN3CC4(C3)CN(c3ccc(C(=O)N[C@H]5CC[C@H](Oc6ccc(C#N)c(Cl)c6)CC5)nn3)C4)cc2)c2cc[nH]c2c1=O` [I-123], for which the GI50 in assay [1] is less than 500 nM; in the assay on T47D cells (Homo sapiens), less than 500 nM; with VCaP cells (Homo sapiens), less than 500 nM; in assay [2] it was 500 to 1500 nM.
`Cn1cc(-c2cc(C(C)(C)O)ccc2Oc2ccc(CCCC3CCN(c4ccc(C(=O)N[C@H]5CC[C@H](Oc6ccc(C#N)c(Cl)c6)CC5)nn4)C3)cc2)c2cc[nH]c2c1=O` (some centres unmarked) [I-135]: the GI50 (in assay [1]; in the assay with T47D cells (Homo sapiens); in the assay with VCaP cells (Homo sapiens); in assay [2]) was less than 500 nM each time.
As to `CCS(=O)(=O)c1ccc(Oc2ccc(CC3CC4(CCN(c5ccc(C(=O)N[C@H]6CC[C@H](Oc7ccc(C#N)c(Cl)c7)CC6)nn5)CC4)C3)cc2)c(-c2cn(C)c(=O)c3[nH]ccc23)c1` [I-86], the GI50 (in assay [1]; in the assay with T47D cells (Homo sapiens); with VCaP cells (Homo sapiens); in assay [2]) was less than 500 nM throughout.
Turning to `CCS(=O)(=O)c1ccc(Oc2ccc(CC3CC4(C3)CN(c3ccc(C(=O)N[C@H]5CC[C@H](Oc6ccc(C#N)c(Cl)c6)CC5)nn3)C4)cc2)c(-c2cn(C)c(=O)c3[nH]ccc23)c1` [I-69], the GI50 (in assay [1]; in the assay on T47D cells (Homo sapiens); in the assay with VCaP cells (Homo sapiens); in assay [2]) was less than 500 nM in each case.
